Assay results from US20220370543A1, “METHODS OF TREATMENT FOR MODIFYING HEMODYNAMICS” (EBI ANTI SEPSIS B.V., priority 2019, published 2022).
“Also recorded” adds a separate entry of the source. Read-outs that look alike come from different tables or passages of the source. Peptide text beside a SMILES is read from it.

Tests used:
[1] = Solubility measurements / aggregation points of AQGV salts
Excerpt: At first attempts were made to mix a solution of the free base and an acid in order to achieve a concentrated DMSO solution of the salt and subsequently dilute this in water in order to determine solubility. […] It was decided to determine the solubility of the salts required by dilution of known amount of salts (not soluble) till a clear solution is obtained.

[2] = EASI phase II study: pharmacokinetics; assay type: in vivo; conditions: human; for Cmax: in vivo, iv, 90 mg/kg, Phase II trial, 90 mg/kg/hour i.v. infusion
Procedure: (§1) Intravenous infusion of EA-230, 90 mg/kg/hour, or placebo, was initiated at the moment of first surgical incision using an automated infusion pump. Infusion rate was set at 250 ml/hour, and infusion was continued until cessation of the CPB, or after 4 hours of continuous infusion, whichever comes first.

[3] = test system: patients undergoing on-pump coronary artery bypass grafting (CABG); assay: EASI phase II study: safety, adverse events; assay type: in vivo, human
Procedure: During cardiac surgery, 180 patients received (double-blinded, placebo-controlled, randomized) 90 mg/kg/hour EA-230 or placebo. The primary endpoint was safety. Efficacy was assessed by immunomodulation (plasma interleukin (IL)-6 concentrations), renal function (glomerular filtration rate using iohexol and creatinine [GFRiohexol, eGFRMDRD] and the incidence of acute kidney injury [AKI, RIFLE criteria]), cardiovascular effects (fluid balance, vasoactive agents) and general outcome (length-of-stay).
A prospective, randomized, double-blind, placebo-controlled study was performed in which 180 elective patients, undergoing on-pump coronary artery bypass grafting, with or without concomitant valve surgery, were enrolled. Patients were randomized in a 1:1 ratio and received either EA-230, 90 mg/kg/hour, or a placebo. These were infused at the start of the surgical procedure until the end of the use of the cardiopulmonary bypass. The main focus in this first-in-patient study was on safety and tolerability of EA-230. The primary efficacy endpoint was the modulation of the inflammatory response by EA-230 quantified as the change in interleukin-6 plasma concentrations after surgery. A key secondary endpoint was the effect of EA-230 on renal function.
The present study was a single-center, prospective, double-blind, placebo-controlled, randomized, single-dose phase II study. It has an adaptive design to evaluate the safety and immunomodulatory effects of EA-230 in patients undergoing on-pump cardiac surgery for coronary artery bypass grafting (CABG) with or without concomitant valve surgery. 180 eligible patients were included and were randomized to receive either active or placebo treatment in a 1:1 ratio. This was a first-in-patient safety and tolerability study, of which the primary efficacy objective was to assess the immunomodulatory effects of EA-230. The key-secondary efficacy endpoint was the effect of EA-230 on renal function. This study was described in accordance with the Standard Protocol Items: Recommendations for Interventional Trial (SPIRIT) guidelines, and registered at clinicaltrials.gov under number NCT03145220.
as §1
All AEs were judged by the investigators with regard to severity (“mild, moderate, or severe”) according to Common Terminology Criteria for Adverse Events guidelines 4.030 and their perceived relation to the study drug (“definitely, probably, possibly, or unrelated/unlikely to be related”). SAEs or SUSARs include death, life-threatening disease, persistent and/or significant disability and/or incapacity, and hospitalization and/or prolongation of inpatient hospitalization.

[4] = 90 mg/kg/hour i.v. during CABG surgery

For CC(C)[C@H](NC(=O)CNC(=O)[C@H](CCC(N)=O)NC(=O)[C@H](C)N)C(=O)O [AQGV-citrate] (H-AQGV-OH), the “Behaviour of highly concentrated solution” value ([1]; 0.9% NaCl, listed as Citric acid) was “does not crystallize or aggregate but tend to form a highly viscous solution”, the “Behaviour of highly concentrated solution” value ([1]; 0.9% NaCl, listed as citric acid) was “remains clear but got very thick/viscous” and the “Solubility in DMSO” value ([1]; free base mixed with acid in DMSO) was “did not dissolve in DMSO at all”. The “Total amount dissolved (clear solution)” value ([1]; in 0.5 mL 0.9% NaCl) was 2.75 mmol.
For CC(C)[C@H](NC(=O)CNC(=O)[C@H](CCC(N)=O)NC(=O)[C@H](C)N)C(=O)O [EA-230, AQGV] (H-AQGV-OH), the “Time to clearance from the circulation when infusion is terminated” value [2] was 5 to 10 min, the Cmax ([2]; read-out: Arterial Cmax, range) was 12500 to 57500 ng/mL and the Cmax ([2]; read-out: Mean arterial Cmax) was 30500 ng/mL. The Cmax ([2]; read-out: Mean venous Cmax) was 68400 ng/mL, the Cmax ([2]; read-out: Venous Cmax, range) was 19600 to 113000 ng/mL and the “Adverse events compared with placebo” value [3, 4] was “less (serious) adverse events and less mayor clinical adverse events”. For the same compound, the “Patients suffering from (adverse) fluid retention compared with placebo” value [3, 4] was “significantly less patients suffering from fluid retention; also recorded: significant reduction of adverse fluid retention”, the “AE of mild intensity: (%) of patients” value ([3]; EASI-study, N = 91) was “(83.5) %” and the “AE of mild intensity: e (number of events)” value ([3]; EASI-study, N = 91) was 188. The “AE of mild intensity: n (number of patients experiencing the event)” value ([3]; EASI-study, N = 91) was 76, the “AE of moderate intensity: (%) of patients” value ([3]; EASI-study, N = 91) was “(24.2) %” and the “AE of moderate intensity: e (number of events)” value ([3]; EASI-study, N = 91) was 23. For the same compound, the “AE of moderate intensity: n (number of patients experiencing the event)” value ([3]; EASI-study, N = 91) was 22, the “AE of severe intensity: (%) of patients” value ([3]; EASI-study, N = 91) was “(5.5) %” and the “AE of severe intensity: e (number of events)” value ([3]; EASI-study, N = 91) was 6. For the same compound, the “AE of severe intensity: n (number of patients experiencing the event)” value ([3]; EASI-study, N = 91) was 5, the “Anemia: (%) of patients” value ([3]; EASI-study, N = 91) was “(5.5) %” and the “Anemia: e (number of events)” value ([3]; EASI-study, N = 91) was 5. For the same compound, the “Anemia: n (number of patients experiencing the event)” value ([3]; EASI-study, N = 91) was 5, the “Any AE: (%) of patients” value ([3]; EASI-study, N = 91) was “(85.7) %” and the “Any AE: n (number of patients experiencing the event)” value ([3]; EASI-study, N = 91) was 78. For the same compound, the “Any SAE: (%) of patients” value ([3]; EASI-study, N = 91) was “(13.2) %”, the “Any SAE: e (number of events)” value ([3]; EASI-study, N = 91) was 23 and the “Any SAE: n (number of patients experiencing the event)” value ([3]; EASI-study, N = 91) was 12. For the same compound, the “Any SUSAR: (%) of patients” value ([3]; EASI-study, N = 91) was “(0) %”, the “Any SUSAR: e (number of events)” value ([3]; EASI-study, N = 91) was 0 and the “Any SUSAR: n (number of patients experiencing the event)” value ([3]; EASI-study, N = 91) was 0. For the same compound, the “Blood and lymphatic system disorders, Overall: (%) of patients” value ([3]; EASI-study, N = 91) was “(5.5) %”, the “Blood and lymphatic system disorders, Overall: e (number of events)” value ([3]; EASI-study, N = 91) was 6 and the “Blood and lymphatic system disorders, Overall: n (number of patients experiencing the event)” value ([3]; EASI-study, N = 91) was 5. The “Delirium: (%) of patients” value ([3]; EASI-study, N = 91) was “(5.5) %”, the “Delirium: e (number of events)” value ([3]; EASI-study, N = 91) was 5 and the “Delirium: n (number of patients experiencing the event)” value ([3]; EASI-study, N = 91) was 5. The “Fluid retention: (%) of patients” value ([3]; EASI-study, N = 91) was “(2.2) %”, the “Fluid retention: e (number of events)” value ([3]; EASI-study, N = 91) was 2 and the “Gastrointestinal disorders, Overall: (%) of patients” value ([3]; EASI-study, N = 91) was “(23.1) %”. The “Gastrointestinal disorders, Overall: e (number of events)” value ([3]; EASI-study, N = 91) was 27, the “Gastrointestinal disorders, Overall: n (number of patients experiencing the event)” value ([3]; EASI-study, N = 91) was 21 and the “Hemorrhagic diathesis: (%) of patients” value ([3]; EASI-study, N = 91) was “(1.1) %”. For the same compound, the “Hemorrhagic diathesis: e (number of events)” value ([3]; EASI-study, N = 91) was 1, the “Hemorrhagic diathesis: n (number of patients experiencing the event)” value ([3]; EASI-study, N = 91) was 1 and the “Infections and infestations, Overall: (%) of patients” value ([3]; EASI-study, N = 91) was “(14.3) %”. For the same compound, the “Infections and infestations, Overall: e (number of events)” value ([3]; EASI-study, N = 91) was 15, the “Infections and infestations, Overall: n (number of patients experiencing the event)” value ([3]; EASI-study, N = 91) was 13 and the “Metabolism and nutrition disorders, Overall: (%) of patients” value ([3]; EASI-study, N = 91) was “(11) %”. The “Metabolism and nutrition disorders, Overall: e (number of events)” value ([3]; EASI-study, N = 91) was 10, the “Metabolism and nutrition disorders, Overall: n (number of patients experiencing the event)” value ([3]; EASI-study, N = 91) was 10 and the “Nausea: (%) of patients” value ([3]; EASI-study, N = 91) was “(16.5) %”. For the same compound, the “Nausea: e (number of events)” value ([3]; EASI-study, N = 91) was 15, the “Nausea: n (number of patients experiencing the event)” value ([3]; EASI-study, N = 91) was 15 and the “Psychiatric disorders, Overall: (%) of patients” value ([3]; EASI-study, N = 91) was “(9.9) %”. The “Psychiatric disorders, Overall: e (number of events)” value ([3]; EASI-study, N = 91) was 9, the “Psychiatric disorders, Overall: n (number of patients experiencing the event)” value ([3]; EASI-study, N = 91) was 9 and the “Renal and urinary disorders, Overall: (%) of patients” value ([3]; EASI-study, N = 91) was “(4.4) %”. For the same compound, the “Renal and urinary disorders, Overall: e (number of events)” value ([3]; EASI-study, N = 91) was 4, the “Renal and urinary disorders, Overall: n (number of patients experiencing the event)” value ([3]; EASI-study, N = 91) was 4 and the Safety and tolerability ([3]; continuous infusion 90 mg/kg/hour up to 4 hours, elective CABG surgery) was “safe and No safety concerns emerged and well tolerated and showed an excellent safety profile”.
With Nc1ncnc2c1ncn2[C@@H]1O[C@H](COP(=O)(O)O)[C@@H](O)[C@H]1O [adenosine-monophosphate] the “Clear solution on adding 0.9% NaCl” value [1] was “no clear solution could be obtained”.
For O=C(O)/C=C\C(=O)O [maleic acid], the “Solubility compared to AQGV-Ac” value ([1]; 0.9% NaCl) was “lower solubility”.
In the case of adenosine, the “Clear solution on adding 0.9% NaCl” value ([1]; 1 or 0.5 mmol salt, small amounts of 0.9% NaCl added) is reported as “no clear solution could be obtained”.
